Results published in patent US20210115018A1, “PIPERIDINE COMPOUNDS AS COVALENT MENIN INHIBITORS” (THE REGENTS OF THE UNIVERSITY OF MICHIGAN, priority 2018, published 2021).
pIC50: −log10 of the molar value.

How the values were obtained:
menin protein = target: T1, menin protein (Homo sapiens, UniProt O00255); assay: Fluorescence polarization (FP) competitive binding assay, menin binding affinity; conditions: FP competition with FAM-MM2 probe 2 nM, menin 4 nM, 30 minutes room temperature
T1 sequence (O00255 1-610): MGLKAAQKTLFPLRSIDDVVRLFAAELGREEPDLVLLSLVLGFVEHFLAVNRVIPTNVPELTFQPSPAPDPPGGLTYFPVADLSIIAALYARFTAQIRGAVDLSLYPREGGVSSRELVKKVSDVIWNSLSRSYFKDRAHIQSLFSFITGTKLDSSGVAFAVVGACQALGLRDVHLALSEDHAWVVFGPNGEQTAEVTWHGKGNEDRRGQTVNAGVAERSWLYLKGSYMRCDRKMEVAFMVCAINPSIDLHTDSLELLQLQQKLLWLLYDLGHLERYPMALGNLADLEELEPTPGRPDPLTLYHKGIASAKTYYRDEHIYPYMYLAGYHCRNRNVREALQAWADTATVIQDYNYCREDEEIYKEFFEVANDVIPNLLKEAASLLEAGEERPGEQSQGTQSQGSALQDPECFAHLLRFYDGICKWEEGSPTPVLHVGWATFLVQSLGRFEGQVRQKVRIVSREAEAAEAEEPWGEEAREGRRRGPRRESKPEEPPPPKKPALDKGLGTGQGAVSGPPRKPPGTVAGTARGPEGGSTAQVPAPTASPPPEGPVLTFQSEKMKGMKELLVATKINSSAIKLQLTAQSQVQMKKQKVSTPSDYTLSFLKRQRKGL
Method: A fluorescence polarization (FP) competitive binding assay was used to determine the binding affinities of representative menin inhibitors. A FAM labeled fluorescent probe was designed and synthesized based on a MLL1 peptide (FAM-MM2). Equilibrium dissociation constant (Kd) value of FAM-MM2 to menin protein was determined from protein saturation experiments by monitoring the total fluorescence polarization of mixtures composed with the fluorescent probe at a fixed concentration and the protein with increasing concentrations up to full saturation. Serial dilutions of the protein were mixed with FAM-MM2 to a final volume of 200 μl in the assay buffer (PBS with 0.02% Bovine γ-Globulin and 4% DMSO. 0.01% Triton X-100 was added right before assays). Final FAM-MM2 concentration was 2 nM. Plates were incubated at room temperature for 30 minutes with gentle shaking to assure equilibrium. FP values in millipolarization units (mP) were measured using the Infinite M-1000 plate reader (Tecan U.S., Research Triangle Park, N.C.) in Microfluor 1 96-well, black, v-bottom plates (Thermo Scientific, Waltham, Mass.) at an excitation wavelength of 485 nm and an emission wavelength of 530 nm.
The IC50 of representative Compounds of the Disclosure, see Table 3, were determined in a competitive binding experiment. Mixtures of 5 μl of the tested compounds in DMSO and 195 μl of preincubated protein/probe complex solution in the assay buffer were added into assay plates which were incubated at room temperature for 30 minutes with gentle shaking. Final concentration of the menin protein was 4 nM, and final probe concentration is 2 nM. Negative controls containing protein/probe complex only (equivalent to 0% inhibition), and positive controls containing only free probes (equivalent to 100% inhibition), were included in each assay plate. FP values were measured as described above. IC50 values were determined by nonlinear regression fitting of the competition curves.

MV4-11 = assay: 7-day proliferation assay (WST-8), cell growth inhibition; assay type: cell-based; conditions: MV4-11 cells, 7 days
Method in brief: (§1)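 Cells seeded at 2,000-3,000/well were exposed to serially diluted compound for 7 days at 37° C., 5% CO2. Viability was read by WST-8 absorbance at 450 nm after 1-2 h color development; readings normalized to DMSO-treated cells, IC50 by four-parameter nonlinear regression.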

MOLM13 = assay: as above; assay type: cell-based; conditions: Homo sapiens, MOLM-13, 168 h, MOLM13 cells, 7 days
Method in brief: as §1

SMILES | pIC50 (menin protein) | IC50 (MV4-11; Homo sapiens, MV4-11, 168 h) [nM] | IC50 (MOLM13) [nM] | IC50 (MV4-11) [nM]
COC(=O)N[C@H]1CCC[C@@H]1[C@](CN1CCC1)(c1cccc(F)c1)C1CCN(CC2CN(c3ccc(S(=O)(=O)C4CN(C(=O)/C=C/CN5CCOCC5)C4)cc3)C2)CC1 [Cpd. No. 25, methyl ((1S,2R)-2-((S)-2-(azetidin-1-yl)-1-(3-fluorophenyl)-1-(1-((1-(4-((1-((E)-4-morpholinobut-2-enoyl)azetidin-3-yl)sulfonyl)phenyl)azetidin-3-yl)methyl)piperidin-4-yl)ethyl)cyclopentyl)carbamate] | 8.15 | < 10 | – | –
COC(=O)N[C@H]1CCC[C@@H]1[C@](CN1CCC1)(c1cccc(F)c1)C1CCN(CC2CN(c3ccc(S(=O)(=O)C4CN(C(=O)/C=C/CN5CCC5)C4)cc3)C2)CC1 [Cpd. No. 173, Methyl ((1S,2R)-2-((S)-2-(azetidin-1-yl)-1-(1-((1-(4-((1-((E)-4-(azetidin-1-yl)but-2-enoyl)azetidin-3-yl)sulfonyl)phenyl)azetidin-3-yl)methyl)piperidin-4-yl)-1-(3-fluorophenyl)ethyl)cyclopentyl)carbamate] | 8.70 | < 10 | – | –
COC(=O)N[C@H]1CCC[C@@H]1[C@](CN1CCC1)(c1cccc(F)c1)C1CCN(CC2CN(c3ccc(C(F)(F)C4CN(C(=O)/C=C/CN5CCCCC5)C4)cc3)C2)CC1 [compound 71] | 8.70 | < 50 | – | –
C=CC(=O)Nc1cc(F)cc(S(=O)(=O)c2ccc(N3CC(CN4CCC([C@@](CN5CCC5)(c5cccc(F)c5)[C@H]5CCC[C@@H]5NC(=O)OC)CC4)C3)cc2)c1 [compound 72] | – | < 10 | < 50 | –
C=CC(=O)Nc1cc(N(C)CCN(C)C)cc(S(=O)(=O)c2ccc(N3CC(CN4CCC([C@@](CN5CCC5)(c5cccc(F)c5)[C@H]5CCC[C@@H]5NC(=O)OC)CC4)C3)cc2)c1 [compound 75] | – | < 10 | < 50 | –
C=CC(=O)Nc1cccc(S(=O)(=O)c2ccc(N3CC(F)(CN4CCC([C@@](CN5CCC5)(c5cccc(F)c5)[C@H]5CCC[C@@H]5NC(=O)OC)CC4)C3)cc2)c1 [compound 76] | – | < 10 | < 50 | –
C=CC(=O)Nc1cc(S(=O)(=O)c2ccc(N3CC(F)(CN4CCC([C@@](CN5CCC5)(c5cccc(F)c5)[C@H]5CCC[C@@H]5NC(=O)OC)CC4)C3)cc2)ccn1 [compound 82] | – | < 10 | < 100 | –
C=CC(=O)Nc1cncc(S(=O)(=O)c2ccc(N3CC(F)(CN4CCC([C@@](CN5CCC5)(c5cccc(F)c5)[C@H]5CCC[C@@H]5NC(=O)OC)CC4)C3)cc2)c1 [compound 83] | – | < 10 | < 100 | –
C=CC(=O)Nc1cccc(S(=O)(=O)c2ccc(N3CC(F)(CN4CCC([C@@](CN5CCC5)(c5cccc(F)c5)[C@H]5CCC[C@@H]5NC(=O)OC)CC4)C3)cc2)n1 [compound 85] | – | < 500 | < 500 | –
C=CC(=O)Nc1cncc(S(=O)(=O)c2ccc(N3CC(F)(CN4CCC([C@@](CN5CCC5)(c5cccc(F)c5)[C@H]5CCC[C@@H]5NC(=O)OC)CC4)C3)c(F)c2)c1 [compound 86] | 8.70 | – | – | < 50
C=CC(=O)Nc1cc(F)cc(S(=O)(=O)c2ccc(N3CC(F)(CN4CCC([C@@](CN5CCC5)(c5cccc(F)c5)[C@H]5CCC[C@@H]5NC(=O)OC)CC4)C3)cc2)c1 [compound 88] | – | < 50 | < 50 | –
C=CC(=O)Nc1cc(OC)cc(S(=O)(=O)c2ccc(N3CC(F)(CN4CCC([C@@](CN5CCC5)(c5cccc(F)c5)[C@H]5CCC[C@@H]5NC(=O)OC)CC4)C3)c(F)c2)c1 [compound 91] | – | < 50 | < 50 | –
C=CC(=O)Nc1cc(S(=O)(=O)c2ccc(N3CC(F)(CN4CCC([C@@](CN5CCC5)(c5cccc(F)c5)[C@H]5CCC[C@@H]5NC(=O)OC)CC4)C3)c(F)c2)ccc1OC [compound 92] | – | < 10 | < 50 | –
COC(=O)N[C@H]1CCC[C@@H]1[C@](CN1CCC1)(c1cccc(F)c1)C1CCN(CC2(F)CN(c3ccc(S(=O)(=O)C4CN(C(=O)/C=C/CN5CCCCC5)C4)cc3F)C2)CC1 [compound 94] | – | < 10 | < 50 | –
COC(=O)N[C@H]1CCC[C@@H]1[C@](CN1CCC1)(c1cccc(F)c1)C1CCN(CC2(F)CN(c3ccc(S(=O)(=O)C4CN(C(=O)/C=C/CN5CCCCC5)C4)cc3)C2)CC1 [compound 95] | – | < 10 | < 50 | –
COC(=O)N[C@H]1CCC[C@@H]1[C@](CN1CCC1)(c1cccc(F)c1)C1CCN(CC2CN(c3ccc(S(=O)(=O)C4CN(C(=O)/C=C/CN5CCC(F)CC5)C4)cc3)C2)CC1 [compound 100] | 8.40 | < 10 | – | –
CC#CC(=O)N1CC(S(=O)(=O)c2ccc(N3CC(F)(CN4CCC([C@@](CN5CCC5)(c5cccc(F)c5)[C@H]5CCC[C@@H]5NC(=O)OC)CC4)C3)c(F)c2)C1 [compound 102] | – | < 10 | < 50 | –
COC(=O)N[C@H]1CCC[C@@H]1[C@](CN1CCC1)(c1cccc(F)c1)C1CCN(CC2CN(c3ccc(S(=O)(=O)C4CN(C(=O)/C=C/CN5CCC(F)(F)CC5)C4)cc3)C2)CC1 [compound 103] | 8.70 | < 10 | – | –
C=CC(=O)N1CCCC(S(=O)(=O)c2ccc(N3CC(F)(CN4CCC([C@@](CN5CCC5)(c5cccc(F)c5)[C@H]5CCC[C@@H]5NC(=O)OC)CC4)C3)cc2)C1 (some centres unmarked) [compound 112] | – | < 50 | < 50 | –
COC(=O)N[C@H]1CCC[C@@H]1[C@](CN1CCC1)(c1cccc(F)c1)C1CCN(CC2(F)CN(c3ccc(S(=O)(=O)C4CCCN(C(=O)/C=C/CO)C4)cc3F)C2)CC1 (some centres unmarked) [compound 122] | – | < 50 | < 100 | –
C=CC(=O)N1CCOCC(S(=O)(=O)c2ccc(N3CC(F)(CN4CCC([C@@](CN5CCC5)(c5cccc(F)c5)[C@H]5CCC[C@@H]5NC(=O)OC)CC4)C3)cc2)C1 (some centres unmarked) [compound 125] | – | < 50 | < 50 | –
C=CC(=O)N1CCc2ccc(S(=O)(=O)c3ccc(N4CC(F)(CN5CCC([C@@](CN6CCC6)(c6cccc(F)c6)[C@H]6CCC[C@@H]6NC(=O)OC)CC5)C4)c(F)c3)cc21 [compound 126] | – | < 500 | < 1000 | –
C=CC(=O)N1CCc2c1cccc2S(=O)(=O)c1ccc(N2CC(F)(CN3CCC([C@@](CN4CCC4)(c4cccc(F)c4)[C@H]4CCC[C@@H]4NC(=O)OC)CC3)C2)c(F)c1 [compound 127] | – | < 100 | < 500 | –
COC(=O)N[C@H]1CCC[C@@H]1[C@](CNC(C)=O)(c1cccc(F)c1)C1CCN(CC2CN(c3ccc(S(=O)(=O)C4CN(C(=O)/C=C/CN(C)C)C4)cc3)C2)CC1 [compound 128] | – | < 10 | < 100 | –
C=CC(=O)N1CC(S(=O)(=O)c2ccc(N3CC(CN4CCC([C@@](CNC(C)=O)(c5cccc(F)c5)[C@H]5CCC[C@@H]5NC(=O)OC)CC4)C3)cc2CN2CC(F)C2)C1 [compound 176] | – | < 50 | < 50 | –
C=CC(=O)N1CC(S(=O)(=O)c2ccc(N3CC(F)(CN4CCC([C@@](CNC(C)=O)(c5cccc(F)c5)[C@H]5CCC[C@@H]5NC(=O)OC)CC4)C3)cc2CN2CC(F)C2)C1 [compound 177] | – | < 100 | < 500 | –
C=CC(=O)N1CCOC[C@@H](S(=O)(=O)c2ccc(N3CC(CN4CCC([C@@](CNC(=O)OC)(c5cccc(F)c5)[C@H]5CCC[C@@H]5NC(=O)OC)CC4)C3)c(F)c2)C1 [compound 179] | – | < 50 | < 100 | –
CC#CC(=O)N1CC[C@@H](S(=O)(=O)c2ccc(N3CC(O)(CN4CCC([C@@](CNC(C)=O)(c5cccc(F)c5)[C@H]5CCC[C@@H]5NC(=O)OC)CC4)C3)c(F)c2)C1 [compound 206] | 8.70 | < 50 | – | –
